# Laboratory results reported in patent US9119805B2, “Therapy and prevention of problem drinking” (THE UNIVERSITY OF SYDNEY, priority 2009, dated 2015).
# Experiments:
# [1] = test system: alcohol-dependent adults and non-dependent problem drinkers; assay: Human Study 1: intranasal oxytocin, stress and alcohol-related cues; assay type: in vivo; conditions: during presentation of stress and alcohol cues, versus placebo
# Experimental: The underlying mechanisms of intranasal oxytocin during exposure to stress and alcohol related cues in adult alcohol-dependent and adult non-dependent problem drinkers are determined.
# In particular, at least twenty male and female adults reporting alcohol dependence according to the Diagnostic and Statistical Manual of Mental Disorders, Fourth Edition (DSM-IV) as determined by the Structured Clinical Interview for the DSM-IV (SCID-IV) are recruited from the community to participate in a laboratory based investigation on the role of oxytocin in stress-related alcohol craving. […]
# Subjects returning to the Brain and Mind Research Institute on the afternoon of the final day of testing are evaluated. Bloods and saliva are taken, and plasma oxytocin and cortisol levels and saliva cortisol are determined and compared to baseline levels before commencement of therapy. […] Changes in mood, drinking behavior and neuropsychology are evaluated for both groups by comparison with baseline evaluations. Changes in smoking behavior are evaluated by FTND testing and comparison with baseline evaluations. HR and BP records over the period and at cessation are also determined and compared to baseline levels before commencement of therapy. […]
# [2] = test system: alcohol-dependent adults and non-dependent problem drinkers; assay: Human Study 3: chronic (4 week) intranasal oxytocin, double-blind placebo-controlled; assay type: in vivo
# Experimental: In a third clinical study in humans, a double-blind, randomized and placebo-controlled study is conducted to determine the effect(s) of intranasal oxytocin therapy on alcohol self-administration in a population of alcohol-dependent adults and in a population of non-dependent problem drinkers. This study determines safety and efficacy of chronic intranasal oxytocin therapy for problem drinking.
# At least 30 male and female alcohol-dependent adults and non-dependent problem drinkers are recruited according to the protocols described in the preceding examples hereof, to participate in a trial investigating chronic (4 week) intranasal oxytocin therapy for problem drinking e.g., alcohol-dependent subjects having a current diagnosis of alcohol dependence according to the Diagnostic and Statistical Manual of Mental Disorders, Fourth Edition (DSM-IV) as determined by the Structured Clinical Interview for the DSM-IV (SCID-IV), and non-dependent subjects scoring higher than 8 on AUDIT. Exclusion criteria are as indicated in the preceding examples.
# All subjects are tested for baseline SCID-IV, AUDIT, PDQ, 90-day TLFB, DASS-21, PANAS, AUQ, FTND, body mass index (BMI), urine toxicology, bloods for baseline oxytocin and cortisol, liver function testing, heart rate (HR), blood pressure (BP), and ECG, and females are pregnancy-tested and their menstrual cycles determined, as described herein above for Study 2. Neuropsychological evaluations e.g., according to CANTAB are also performed. Additionally, subjects are subjected to attention bias assessment task testing, wherein attention biases to alcohol-related cues are determined using e.g., stroop and dot-probe methodology. Subjects also participate in a reward learning computer task, to assess motivation for their alcohol consumption. Based on their test results, subjects are selected for recruitment in the study.
# Recruited subjects are administered placebo or oxytocin intranasally (80 IU per day: 40 IU at 9:00 am and 40 IU at 9:00 pm) over a period of 28 days, following completion of baseline measurements. Subjects are instructed on self-administration procedures and given an initial 14 day supply of medication. Participants attend a mid-point assessment where they will receive the remaining 14 day supply of medication. Drug administration commences on the evening of the day of the clinical and medical interview and ceases on a morning 28 days later, after 56 doses have been administered. Subjects are randomized to oxytocin-receiving or placebo-receiving groups, and the groups are stratified according to gender, age, and drinking behavior.
# Recruited subjects are also fitted with an actigraphy watch and complete a sleep diary over the following two week period. The actigraphy watches provide information on sleep/wake cycles and light exposure which play an important role in the psychopathology of alcohol misuse. Participants also complete daily self-tests of drinking behavior (AUQ), mood (PANAS), and report on adverse effects of medication. All participants are contacted weekly beginning after 3 days from the commencement of therapy, to determine compliance and adverse events.
# Subjects returning to the BMRI on the afternoon of the 14th day of testing are evaluated i.e., the mid-point assessment. Bloods are taken for analysis of plasma oxytocin and cortisol levels as well as basic pathology including liver function and compared to baseline levels before commencement of drug dosing. A urine toxicology test and alcohol breathalyzer test are also performed, to determine whether subjects have been alcohol-free and drug-free at the time of testing. Subjects are tested according to DASS-21, PANAS, 14-day TLFB, and AUQ, and neuropsychological evaluations e.g., according to CANTAB are performed. Changes in mood, drinking behavior and neuropsychology are evaluated for both groups by comparison with baseline evaluations. […]
# [3] = dosing period and follow-up, than before therapy
# [4] = intranasal 80 IU per day for 28 days
structure (smiles),measurement,setting,value
CC[C@H](C)[C@@H]1NC(=O)[C@H](Cc2ccc(O)cc2)NC(=O)[C@@H](N)CSSC[C@@H](C(=O)N2CCC[C@H]2C(=O)N[C@@H](CC(C)C)C(=O)NCC(N)=O)NC(=O)[C@H](CC(N)=O)NC(=O)[C@H](CCC(N)=O)NC1=O [oxytocin],anxiety and stress,[1],lower
same,subjective craving for alcohol,[1],lower
same,criteria for problem drinking,[2]; at 3-month or 6-month or 12-month follow-up,do not meet the criteria for problem drinking
same,heavy drinking days,"[2]; dosing period and 3-, 6-, 12-month follow-up, than before therapy",fewer heavy drinking days
same,cognitive biases to alcohol-related cues,[2]; dosing period and follow-up,reduced cognitive biases
same,"liver function, BMI, and heart function",[2]; dosing period and follow-up,gradually improved
same,reward driven motivation to consume alcohol,[2]; dosing period and follow-up,reduced reward driven motivation
same,abstinent days,[2]; [3],more abstinent days
same,period of time between heavy drinking days,[2]; [3],longer period of time between heavy drinking days
same,alcohol intake,[2]; [4],reduced alcohol intake
same,short-term memory function and general mood,[2]; [4],enhanced short-term memory function and general mood
same,impulsivity,"[2]; intranasal 80 IU per day for 28 days, dependent and non-dependent drinkers",decreased impulsivity
same,sleep behavior,[2]; throughout the medication dosing period,improved sleep behavior
